Drawing on patent US20070142389A1, “PIPERIDINE DERIVATIVES” (PFIZER INC., priority 2005, published 2007), this text covers inhibition in vivo and Ki for 10 compounds.

In general, Ki refers to the dissociation constant of the complex between target and ligand, obtained from inhibition or displacement.

The test system of assay [1] is capsaicin-induced mechanical allodynia in a rat. Briefly: rat model of capsaicin-induced mechanical allodynia. It counts as in vivo. Particulars: sc, read-out: % Inhibition of Allodynia. The protocol: Compounds of the present invention may be assayed for their ability to alleviate capsaicin-induced mechanical allodynia in a rat (e.g., Sluka (2002) J of Neuroscience, 22(13): 5687-5693). For example, a rat model of capsaicin-induced mechanical allodynia was carried out as follows:
On day 0, male Sprague-Dawley rats (about 150 g each) in the dark cycle were placed in suspended wire-bottom cages and allowed to acclimate for 0.5 hour in a darkened, quiet room. The day 0 paw withdrawal threshold (PWT) was determined on the left hind paw by Von Frey hair assessment using the Dixon up and down method. After assessment, the plantar muscle of the right hind paw was injected with 100 μL capsaicin (0.25% (w/v) in 10% ethanol, 10% Tween 80, in sterile saline). On day 6 the PWT of the left hind paw (contralateral from injection site) was determined for each animal. Animals from the day 6 prereads with PWT ≦11.7 g were considered allodynic responders and were regrouped so that each cage had similar mean PWT values. On day 7, responders were dosed subcutaneously with 10 mg compound/kg body weight, or with vehicle alone. The vehicle was phosphate buffered saline containing 2% Cremophor® EL (BASF Corp., Florham Park, N.J.). The contralateral PWT values were determined at 1 hour after the single dose, with the investigator blinded to the dosing scheme.
For each animal, the day 6 PWT value was subtracted from the 1 hour PWT value to give a delta PWT value that represents the change in PWT due to the 1 hour drug treatment. In addition, the day 6 PWT was subtracted from the day 0 PWT to give the baseline window of allodynia present in each animal. To determine % inhibition of allodynia of each animal normalized for vehicle controls, the following formula was used: % Inhibition of Allodynia =100× [(Delta PWT(drug)—mean Delta PWT(vehicle))/(Baseline—mean Delta PWT(vehicle))].
The mean percent inhibition of allodynia values (for eight animals assayed for each compound) +/− the standard error of the mean (SEM) are shown in Table 2.

Assay [2] concerns the target T1, human serotonin transporter (Homo sapiens, UniProt P31645).
T1 construct: expressed in transfected cells; host or cells: HEK-293
The assay can be described thus: hSERT Receptor Binding ([125I]-RTI-55 displacement, HEK-293 membranes). The following applies: hSERT, HEK-293 cell membranes, 50 pM [125I]-RTI-55, Ki from IC50 by Cheng-Prusoff; read-out: SERT Ki. The protocol: Cell pastes of HEK-293 cells transfected with a human serotonin transporter cDNA were prepared. The cell pastes were resuspended in 400 to 700 mL of Krebs-HEPES assay buffer (25 mM HEPES, 122 mM NaCl, 3 mM KCl, 1.2 mM MgSO4, 1.3 mM CaCl2, and 11 mM glucose, pH 7.4) with a Polytron homogenizer at Setting 7 for 30 seconds. Aliquots of membranes (about 2.5 mg/mL protein) were stored in liquid nitrogen until used.
Assays were set up in FlashPlates pre-coated with 0.1 % PEI in a total volume of 250 μL containing: compound of one of the Examples (10^−5M to 10^−12M), cell membanes, and 50 pM [^125l]-RTI-55 (Perkin Elmer, NEX-272; specific activity 2200 Ci/mmol). The reaction was incubated and gently agitated for 90 minutes at room temperature, and terminated by removal of assay volume. Plates were covered, and bound [^125I]-RTI-55 was determined using a Wallac Trilux Beta Plate Counter. Test compounds were run in duplicate, and specific binding was defined as the difference between binding in the presence and absence of 10 μM citalopram.
(§1) Excel and GraphPad Prism software were used for data calculation and analysis. IC50 values were converted to Ki values using the Cheng-Prusoff equation.

In assay [3] the target is T2, human norepinephrine transporter (Homo sapiens, UniProt P23975).
T2 construct: expressed in transfected cells; host or cells: HEK-293
T2 sequence (P23975 whole entry): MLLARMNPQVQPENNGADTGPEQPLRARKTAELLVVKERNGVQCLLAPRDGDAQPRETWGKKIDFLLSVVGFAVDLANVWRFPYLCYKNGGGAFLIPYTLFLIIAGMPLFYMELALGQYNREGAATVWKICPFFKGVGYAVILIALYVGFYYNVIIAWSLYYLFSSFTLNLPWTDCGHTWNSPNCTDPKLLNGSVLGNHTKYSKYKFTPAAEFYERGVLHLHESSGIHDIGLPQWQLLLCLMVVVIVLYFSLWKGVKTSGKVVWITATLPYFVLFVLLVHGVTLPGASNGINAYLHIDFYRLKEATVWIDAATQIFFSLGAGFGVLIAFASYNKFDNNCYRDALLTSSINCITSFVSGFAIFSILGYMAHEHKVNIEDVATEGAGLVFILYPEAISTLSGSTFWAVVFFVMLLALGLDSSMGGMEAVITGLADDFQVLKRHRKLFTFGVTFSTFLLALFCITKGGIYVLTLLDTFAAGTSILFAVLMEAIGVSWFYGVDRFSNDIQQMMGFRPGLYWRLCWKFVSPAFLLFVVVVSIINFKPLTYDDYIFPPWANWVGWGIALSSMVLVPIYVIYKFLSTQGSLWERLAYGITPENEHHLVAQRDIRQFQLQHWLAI
Briefly: hNET Receptor Binding ([125I]-RTI-55 displacement, HEK-293 membranes). The following applies: hNET, HEK-293 cell membranes, 50 pM [125I]-RTI-55, Ki from IC50 by Cheng-Prusoff; read-out: NET Ki. The procedure: Cell pastes of HEK-293 cells transfected with a human norepinephrine transporter cDNA were prepared. The cell pastes were resuspended in 400 to 700 mL of Krebs-HEPES assay buffer (25 mM HEPES, 122 mM NaCl, 3 mM KCl, 1.2 mM MgSO4, 1.3 mM CaCl2, and 11 mM glucose, pH 7.4) with a Polytron homogenizer at setting 7 for 30 seconds. Aliquots of membranes (5 mg/mL protein) were stored in liquid nitrogen until used.
The binding assay was set up in Beckman deep-well polypropylene plates with a total volume of 250 μL containing: compound of one of the Examples (10^−5M to 10^−12M), cell membranes, and 50 pM [^125I]-RTI-55 (Perkin Elmer, NEX-272; specific activity 2200 Ci/mmol). The reaction was incubated by gentle agitation for 90 minutes at room temperature and was terminated by filtration through Whatman GF/C filter plates using a Brandel 96-well plate harvester. Scintillation fluid (100 μL) was added to each well, and bound [^125I]-RTI-55 was determined using a Wallac Trilux Beta Plate Counter. Test compounds were run in duplicate, and specific binding was defined as the difference between binding in the presence and absence of 10 μM desipramine.
as §1

Setting [4] is: male Sprague-Dawley rats, 10 mg/kg subcutaneously, PWT 1 hour after single dose, mean +/- SEM of eight animals, normalized for vehicle.

Read-outs that look alike come from different tables or passages of the source.

T1 sequence (P31645 whole entry): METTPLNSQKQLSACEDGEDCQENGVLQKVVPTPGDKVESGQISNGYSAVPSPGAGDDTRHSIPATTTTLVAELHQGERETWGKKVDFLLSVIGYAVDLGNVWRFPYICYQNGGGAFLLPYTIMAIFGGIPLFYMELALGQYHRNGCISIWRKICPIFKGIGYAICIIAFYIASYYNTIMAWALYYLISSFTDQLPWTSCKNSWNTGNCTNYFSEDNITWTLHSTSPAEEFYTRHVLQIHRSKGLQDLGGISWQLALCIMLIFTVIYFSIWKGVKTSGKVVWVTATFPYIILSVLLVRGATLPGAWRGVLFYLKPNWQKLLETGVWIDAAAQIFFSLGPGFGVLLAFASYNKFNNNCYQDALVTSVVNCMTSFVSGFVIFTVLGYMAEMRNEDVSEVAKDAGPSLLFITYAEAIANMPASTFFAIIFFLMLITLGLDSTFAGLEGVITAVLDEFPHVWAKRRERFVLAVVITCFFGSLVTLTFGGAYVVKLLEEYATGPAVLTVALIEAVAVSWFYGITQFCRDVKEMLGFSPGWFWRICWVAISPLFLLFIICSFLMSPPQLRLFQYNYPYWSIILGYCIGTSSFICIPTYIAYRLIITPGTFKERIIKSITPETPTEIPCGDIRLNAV

On to `CCOc1ncccc1OC[C@H]1CNCC[C@@H]1c1ccccc1` (single isomer, unassigned) [Example 1], for which the inhibition in vivo at 10 mg/kg in assay [1] (setting [4]) is 82.3%. Further, the results for the Ki in assay [2] and in assay [3] were 24.3 nM and 3.83 nM, respectively.
`CCOc1ncccc1OC[C@H]1CNCC[C@@H]1c1ccccc1` [Example 2, (3R,4S)-2-Ethoxy-3-(4-phenyl-piperidin-3-ylmethoxy)-pyridine]: the inhibition in vivo at 10 mg/kg in assay [1] (setting [4]) came out at 1.4%. For the same compound, the Ki in assay [2] is 6.51 nM; in assay [3], 3290 nM.
For `COc1ncccc1OC[C@@H]1CNCC[C@H]1c1ccccc1` [Example 7, (3S,4R)-2-Methoxy-3-(4-phenyl-piperidin-3-ylmethoxy)-pyridine], the inhibition in vivo at 10 mg/kg in assay [1] (setting [4]) was 67.3%. In addition, the results for the Ki in assay [2] and in assay [3] were 17.7 nM and 3.34 nM, respectively.
Turning to `CCCOc1ncccc1OC[C@@H]1CNCC[C@H]1c1ccccc1` [Example 9, (3S,4R)-3-(4-Phenyl-piperidin-3-ylmethoxy)-2-propoxy-pyridine], the inhibition in vivo at 10 mg/kg in assay [1] (setting [4]) stood at 29.5%. The Ki in assay [2] is 17.5 nM; in assay [3] it was 3.04 nM.
In the same order, the values of `COCCOc1ncccc1OC[C@@H]1CNCC[C@H]1c1ccccc1` [Example 11, (3S,4R)-2-(2-Methoxy-ethoxy)-3-(4-phenyl-piperidin-3-ylmethoxy)-pyridine] are 77.3%, 188 nM and 4.57 nM.
Consider `CC(C)Oc1ncccc1OC[C@@H]1CNCC[C@H]1c1ccccc1` [Example 12, (3S,4R)-2-lsopropoxy-3-(4-phenyl-piperidin-3-ylmethoxy)-pyridine], for which the inhibition in vivo at 10 mg/kg in assay [1] (setting [4]) was found to be 66.4%. The Ki turned out to be 40.6 nM in assay [2] and 4.18 nM in assay [3].
On to `COCCCOc1ncccc1OC[C@@H]1CNCC[C@H]1c1ccccc1` [Example 14, (3S,4R)-2-(3-Methoxy-propoxy)-3-(4-phenyl-piperidin-3-ylmethoxy)-pyridine], for which the inhibition in vivo at 10 mg/kg in assay [1] (setting [4]) turned out to be 22.7%. The Ki in assay [2] came out at 164 nM; in assay [3], 12.1 nM.
In the same order, the values of `CCCc1ncccc1OC[C@@H]1CNCC[C@H]1c1ccccc1` [Example 17, (3S,4R)-3-(4-Phenyl-piperidin-3-ylmethoxy)-2-propyl-pyridine] are 2.6%, 21.9 nM and 13.2 nM.
On to `c1ccc([C@@H]2CCNC[C@H]2COc2ccnc3ccsc23)cc1` [Example 35, (3S,4R)-7-(4-Phenyl-piperidin-3-ylmethoxy)-thieno[3,2-b]pyridine], for which the inhibition in vivo at 10 mg/kg in assay [1] (1 h) was determined as 5.5%. The Ki in assay [2] was determined as 8.4 nM; in assay [3] it was 14.6 nM.
As for `NC(=O)c1ccc(OC[C@@H]2CNCC[C@H]2c2ccccc2)cc1` [Example 38, (3S,4R)-4-(4-Phenyl-piperidin-3-ylmethoxy)-benzamide], in assay [1] (setting [4]), the inhibition in vivo at 10 mg/kg was 0.2%. Also, the Ki in assay [2] stood at 174 nM; in assay [3], 12.1 nM.
